Source: ChEMBL document CHEMBL4507296 (2021)

Columns and labels:
[1] = molecular target: AP2-associated protein kinase 1 (Homo sapiens) (UniProt Q2M2I8); conditions: Compound concentration 1000.0 nM
[2] = tested on: Tyrosine-protein kinase ABL1 (Homo sapiens), P00519 [M351T]; conditions: Compound concentration 1000.0 nM
[3] = molecular target: Activin receptor type-1B (Homo sapiens) (UniProt P36896); conditions: Compound concentration 1000.0 nM
[4] = molecular target: Activin receptor type-2A (Homo sapiens) (UniProt P27037); conditions: Compound concentration 1000.0 nM
[5] = molecular target: Mitogen-activated protein kinase kinase kinase 5 (Homo sapiens) (UniProt Q99683); conditions: Compound concentration 1000.0 nM
[6] = molecular target: Aurora kinase C (Homo sapiens) (UniProt Q9UQB9); conditions: Compound concentration 1000.0 nM
[7] = molecular target: Serine/threonine-protein kinase BRSK1 (Homo sapiens) (UniProt Q8TDC3); conditions: Compound concentration 1000.0 nM
[8] = molecular target: Calcium/calmodulin-dependent protein kinase type 1B (Homo sapiens) (UniProt Q6P2M8); conditions: Compound concentration 1000.0 nM
[9] = molecular target: Peripheral plasma membrane protein CASK (Homo sapiens) (UniProt O14936); conditions: Compound concentration 1000.0 nM
[10] = molecular target: Cyclin-dependent kinase-like 2 (Homo sapiens) (UniProt Q92772); conditions: Compound concentration 1000.0 nM
[11] = molecular target: Cyclin-dependent kinase-like 5 (Homo sapiens) (UniProt O76039); conditions: Compound concentration 1000.0 nM
[12] = molecular target: Serine/threonine-protein kinase 17A (Homo sapiens) (UniProt Q9UEE5); conditions: Compound concentration 1000.0 nM
[13] = molecular target: Serine/threonine-protein kinase 17B (Homo sapiens) (UniProt O94768); conditions: Compound concentration 1000.0 nM
[14] = molecular target: Dual specificity tyrosine-phosphorylation-regulated kinase 2 (Homo sapiens) (UniProt Q92630); conditions: Compound concentration 1000.0 nM
[15] = molecular target: Receptor tyrosine-protein kinase erbB-3 (Homo sapiens) (UniProt P21860); conditions: Compound concentration 1000.0 nM
Sequence of Receptor tyrosine-protein kinase erbB-3 (Homo sapiens) (P21860 whole entry): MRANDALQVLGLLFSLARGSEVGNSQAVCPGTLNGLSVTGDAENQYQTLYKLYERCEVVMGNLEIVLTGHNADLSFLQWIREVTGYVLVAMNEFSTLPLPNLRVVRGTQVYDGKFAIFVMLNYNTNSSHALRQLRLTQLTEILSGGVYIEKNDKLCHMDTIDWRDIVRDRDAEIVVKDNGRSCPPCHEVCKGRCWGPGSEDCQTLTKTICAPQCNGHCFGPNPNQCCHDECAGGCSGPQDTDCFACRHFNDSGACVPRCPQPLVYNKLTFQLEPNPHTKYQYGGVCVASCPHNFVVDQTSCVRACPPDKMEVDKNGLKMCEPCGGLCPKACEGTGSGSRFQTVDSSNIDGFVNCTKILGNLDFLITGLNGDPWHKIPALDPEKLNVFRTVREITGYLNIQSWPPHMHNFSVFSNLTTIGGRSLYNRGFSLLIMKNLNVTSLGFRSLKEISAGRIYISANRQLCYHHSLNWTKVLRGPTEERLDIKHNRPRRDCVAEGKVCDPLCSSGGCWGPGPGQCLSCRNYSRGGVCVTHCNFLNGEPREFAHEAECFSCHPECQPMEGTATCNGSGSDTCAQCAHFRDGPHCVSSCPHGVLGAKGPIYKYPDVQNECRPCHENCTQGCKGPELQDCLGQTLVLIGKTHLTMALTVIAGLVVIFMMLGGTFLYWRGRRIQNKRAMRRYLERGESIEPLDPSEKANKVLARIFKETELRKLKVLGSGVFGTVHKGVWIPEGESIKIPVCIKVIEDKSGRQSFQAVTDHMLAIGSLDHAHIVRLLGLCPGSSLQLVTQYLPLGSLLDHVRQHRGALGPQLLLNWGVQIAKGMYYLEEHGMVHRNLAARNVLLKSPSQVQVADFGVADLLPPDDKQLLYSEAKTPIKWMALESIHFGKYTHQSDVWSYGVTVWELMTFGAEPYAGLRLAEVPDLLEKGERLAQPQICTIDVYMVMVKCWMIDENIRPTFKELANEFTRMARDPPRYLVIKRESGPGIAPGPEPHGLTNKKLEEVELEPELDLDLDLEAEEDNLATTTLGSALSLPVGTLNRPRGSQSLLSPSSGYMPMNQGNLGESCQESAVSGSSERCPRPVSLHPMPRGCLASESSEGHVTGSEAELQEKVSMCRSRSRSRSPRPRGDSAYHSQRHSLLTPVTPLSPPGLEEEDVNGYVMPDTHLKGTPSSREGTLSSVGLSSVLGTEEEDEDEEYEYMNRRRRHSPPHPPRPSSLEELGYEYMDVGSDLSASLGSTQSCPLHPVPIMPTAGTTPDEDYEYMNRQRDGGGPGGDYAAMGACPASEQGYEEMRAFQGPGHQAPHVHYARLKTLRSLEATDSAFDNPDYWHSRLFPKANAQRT

[16] = molecular target: Focal adhesion kinase 1 (Homo sapiens) (UniProt Q05397); conditions: Compound concentration 1000.0 nM
[17] = tested on: Receptor-type tyrosine-protein kinase FLT3 (Homo sapiens), P36888 [K663Q]; conditions: Compound concentration 1000.0 nM
[18] = molecular target: Beta-adrenergic receptor kinase 1 (Homo sapiens) (UniProt P25098); conditions: Compound concentration 1000.0 nM
[19] = molecular target: Tyrosine-protein kinase JAK2 (Homo sapiens) (UniProt O60674); conditions: Compound concentration 1000.0 nM
[20] = tested on: Mast/stem cell growth factor receptor Kit (Homo sapiens), P10721 [V559D]; conditions: Compound concentration 1000.0 nM
[21] = molecular target: Serine/threonine-protein kinase MARK1 (Homo sapiens) (UniProt Q9P0L2); conditions: Compound concentration 1000.0 nM
[22] = molecular target: Serine/threonine-protein kinase 38 (Homo sapiens) (UniProt Q15208); conditions: Compound concentration 1000.0 nM
[23] = molecular target: Serine/threonine-protein kinase Nek5 (Homo sapiens) (UniProt Q6P3R8); conditions: Compound concentration 1000.0 nM
[24] = molecular target: Serine/threonine-protein kinase PAK 4 (Homo sapiens) (UniProt O96013); conditions: Compound concentration 1000.0 nM
[25] = molecular target: Cyclin-dependent kinase 16 (Homo sapiens) (UniProt Q00536); conditions: Compound concentration 1000.0 nM
Sequence of Cyclin-dependent kinase 16 (Homo sapiens) (Q00536 whole entry): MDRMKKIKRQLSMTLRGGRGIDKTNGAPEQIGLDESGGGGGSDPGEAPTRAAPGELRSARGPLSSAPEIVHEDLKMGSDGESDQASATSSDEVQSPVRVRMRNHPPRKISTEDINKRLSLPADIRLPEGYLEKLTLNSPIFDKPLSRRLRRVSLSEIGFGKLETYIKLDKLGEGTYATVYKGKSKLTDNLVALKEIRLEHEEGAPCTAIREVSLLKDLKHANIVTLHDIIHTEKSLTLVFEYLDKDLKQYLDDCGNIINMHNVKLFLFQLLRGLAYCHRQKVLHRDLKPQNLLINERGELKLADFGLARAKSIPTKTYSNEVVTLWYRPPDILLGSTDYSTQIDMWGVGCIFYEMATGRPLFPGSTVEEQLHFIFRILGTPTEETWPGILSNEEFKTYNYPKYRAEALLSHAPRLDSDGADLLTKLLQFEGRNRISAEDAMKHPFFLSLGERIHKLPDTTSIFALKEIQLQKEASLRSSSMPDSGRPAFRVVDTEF

[26] = molecular target: Cyclin-dependent kinase 14 (Homo sapiens) (UniProt O94921); conditions: Compound concentration 1000.0 nM
[27] = molecular target: Phosphorylase b kinase regulatory subunit alpha, liver isoform (Homo sapiens) (UniProt P46019); conditions: Compound concentration 1000.0 nM
[28] = molecular target: Phosphatidylinositol 4,5-bisphosphate 3-kinase catalytic subunit alpha isoform (Homo sapiens) (UniProt P42336); conditions: Compound concentration 1000.0 nM
Sequence of Phosphatidylinositol 4,5-bisphosphate 3-kinase catalytic subunit alpha isoform (Homo sapiens) (P42336 whole entry, canonical isoform): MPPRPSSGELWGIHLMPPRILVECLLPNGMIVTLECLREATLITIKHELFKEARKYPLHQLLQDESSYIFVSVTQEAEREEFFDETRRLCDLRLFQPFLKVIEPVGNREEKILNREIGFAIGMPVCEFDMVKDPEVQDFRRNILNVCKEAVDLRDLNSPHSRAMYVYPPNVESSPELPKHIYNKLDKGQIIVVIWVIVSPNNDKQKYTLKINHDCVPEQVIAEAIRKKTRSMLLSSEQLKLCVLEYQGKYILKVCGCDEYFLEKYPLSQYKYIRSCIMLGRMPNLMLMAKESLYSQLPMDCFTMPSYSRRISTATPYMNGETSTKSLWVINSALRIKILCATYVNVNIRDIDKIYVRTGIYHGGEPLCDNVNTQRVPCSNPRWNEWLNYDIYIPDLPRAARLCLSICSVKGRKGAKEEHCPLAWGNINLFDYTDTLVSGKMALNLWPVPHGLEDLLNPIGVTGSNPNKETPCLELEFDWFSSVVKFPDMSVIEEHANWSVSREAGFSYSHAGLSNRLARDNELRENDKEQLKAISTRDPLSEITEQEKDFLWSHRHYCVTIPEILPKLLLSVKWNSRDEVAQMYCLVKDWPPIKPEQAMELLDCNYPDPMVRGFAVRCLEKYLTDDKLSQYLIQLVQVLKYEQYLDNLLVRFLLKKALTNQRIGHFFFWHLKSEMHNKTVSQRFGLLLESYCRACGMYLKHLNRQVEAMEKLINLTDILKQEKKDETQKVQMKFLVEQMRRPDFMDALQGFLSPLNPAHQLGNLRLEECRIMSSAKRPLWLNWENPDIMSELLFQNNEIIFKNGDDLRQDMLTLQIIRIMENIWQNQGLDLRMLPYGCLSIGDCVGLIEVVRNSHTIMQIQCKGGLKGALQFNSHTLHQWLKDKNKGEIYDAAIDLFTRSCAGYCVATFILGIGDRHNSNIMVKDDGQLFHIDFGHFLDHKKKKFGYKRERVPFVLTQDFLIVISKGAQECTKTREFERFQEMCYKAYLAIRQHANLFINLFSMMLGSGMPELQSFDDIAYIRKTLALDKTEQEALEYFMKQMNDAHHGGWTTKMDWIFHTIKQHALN

[29] = tested on: Phosphatidylinositol 4,5-bisphosphate 3-kinase catalytic subunit alpha isoform (Homo sapiens), P42336 [H1047L]; conditions: Compound concentration 1000.0 nM
Sequence of Phosphatidylinositol 4,5-bisphosphate 3-kinase catalytic subunit alpha isoform (Homo sapiens), P42336 [H1047L] (P42336 whole entry H1047L, canonical isoform): as the sequence (P42336 whole entry, canonical isoform) above, with H1047L counted along it

[30] = molecular target: cAMP-dependent protein kinase catalytic subunit alpha (Homo sapiens) (UniProt P17612); conditions: Compound concentration 1000.0 nM
[31] = molecular target: Ribosomal protein S6 kinase alpha-5 (Homo sapiens) (UniProt O75582); conditions: Compound concentration 1000.0 nM
[32] = molecular target: Ribosomal protein S6 kinase alpha-3 (Homo sapiens) (UniProt P51812); conditions: Compound concentration 1000.0 nM
Sequence of Ribosomal protein S6 kinase alpha-3 (Homo sapiens) (P51812 whole entry): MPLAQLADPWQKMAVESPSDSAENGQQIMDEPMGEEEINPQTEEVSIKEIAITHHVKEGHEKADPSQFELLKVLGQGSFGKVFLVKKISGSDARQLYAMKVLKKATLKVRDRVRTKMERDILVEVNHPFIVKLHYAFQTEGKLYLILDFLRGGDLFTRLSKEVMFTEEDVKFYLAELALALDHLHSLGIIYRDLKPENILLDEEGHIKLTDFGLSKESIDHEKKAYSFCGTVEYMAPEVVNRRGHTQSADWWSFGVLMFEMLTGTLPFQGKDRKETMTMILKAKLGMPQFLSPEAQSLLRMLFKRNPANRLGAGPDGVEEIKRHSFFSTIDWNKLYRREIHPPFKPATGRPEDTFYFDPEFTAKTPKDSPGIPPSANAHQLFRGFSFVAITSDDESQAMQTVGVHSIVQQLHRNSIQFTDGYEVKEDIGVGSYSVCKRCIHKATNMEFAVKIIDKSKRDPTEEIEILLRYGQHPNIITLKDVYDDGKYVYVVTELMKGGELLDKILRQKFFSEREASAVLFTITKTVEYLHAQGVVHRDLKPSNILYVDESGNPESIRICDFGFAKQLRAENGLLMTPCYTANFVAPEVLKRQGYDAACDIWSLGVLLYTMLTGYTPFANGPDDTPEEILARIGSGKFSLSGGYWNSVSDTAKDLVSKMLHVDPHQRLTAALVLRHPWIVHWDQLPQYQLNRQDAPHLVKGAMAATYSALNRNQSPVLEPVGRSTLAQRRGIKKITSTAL

[33] = molecular target: STE20-like serine/threonine-protein kinase (Homo sapiens) (UniProt Q9H2G2); conditions: Compound concentration 1000.0 nM
[34] = molecular target: STE20/SPS1-related proline-alanine-rich protein kinase (Homo sapiens) (UniProt Q9UEW8); conditions: Compound concentration 1000.0 nM
[35] = molecular target: Transient receptor potential cation channel subfamily M member 6 (Homo sapiens) (UniProt Q9BX84); conditions: Compound concentration 1000.0 nM
[36] = molecular target: Vascular endothelial growth factor receptor 2 (Homo sapiens) (UniProt P35968); conditions: Compound concentration 1000.0 nM
Sequence of Vascular endothelial growth factor receptor 2 (Homo sapiens) (P35968 whole entry): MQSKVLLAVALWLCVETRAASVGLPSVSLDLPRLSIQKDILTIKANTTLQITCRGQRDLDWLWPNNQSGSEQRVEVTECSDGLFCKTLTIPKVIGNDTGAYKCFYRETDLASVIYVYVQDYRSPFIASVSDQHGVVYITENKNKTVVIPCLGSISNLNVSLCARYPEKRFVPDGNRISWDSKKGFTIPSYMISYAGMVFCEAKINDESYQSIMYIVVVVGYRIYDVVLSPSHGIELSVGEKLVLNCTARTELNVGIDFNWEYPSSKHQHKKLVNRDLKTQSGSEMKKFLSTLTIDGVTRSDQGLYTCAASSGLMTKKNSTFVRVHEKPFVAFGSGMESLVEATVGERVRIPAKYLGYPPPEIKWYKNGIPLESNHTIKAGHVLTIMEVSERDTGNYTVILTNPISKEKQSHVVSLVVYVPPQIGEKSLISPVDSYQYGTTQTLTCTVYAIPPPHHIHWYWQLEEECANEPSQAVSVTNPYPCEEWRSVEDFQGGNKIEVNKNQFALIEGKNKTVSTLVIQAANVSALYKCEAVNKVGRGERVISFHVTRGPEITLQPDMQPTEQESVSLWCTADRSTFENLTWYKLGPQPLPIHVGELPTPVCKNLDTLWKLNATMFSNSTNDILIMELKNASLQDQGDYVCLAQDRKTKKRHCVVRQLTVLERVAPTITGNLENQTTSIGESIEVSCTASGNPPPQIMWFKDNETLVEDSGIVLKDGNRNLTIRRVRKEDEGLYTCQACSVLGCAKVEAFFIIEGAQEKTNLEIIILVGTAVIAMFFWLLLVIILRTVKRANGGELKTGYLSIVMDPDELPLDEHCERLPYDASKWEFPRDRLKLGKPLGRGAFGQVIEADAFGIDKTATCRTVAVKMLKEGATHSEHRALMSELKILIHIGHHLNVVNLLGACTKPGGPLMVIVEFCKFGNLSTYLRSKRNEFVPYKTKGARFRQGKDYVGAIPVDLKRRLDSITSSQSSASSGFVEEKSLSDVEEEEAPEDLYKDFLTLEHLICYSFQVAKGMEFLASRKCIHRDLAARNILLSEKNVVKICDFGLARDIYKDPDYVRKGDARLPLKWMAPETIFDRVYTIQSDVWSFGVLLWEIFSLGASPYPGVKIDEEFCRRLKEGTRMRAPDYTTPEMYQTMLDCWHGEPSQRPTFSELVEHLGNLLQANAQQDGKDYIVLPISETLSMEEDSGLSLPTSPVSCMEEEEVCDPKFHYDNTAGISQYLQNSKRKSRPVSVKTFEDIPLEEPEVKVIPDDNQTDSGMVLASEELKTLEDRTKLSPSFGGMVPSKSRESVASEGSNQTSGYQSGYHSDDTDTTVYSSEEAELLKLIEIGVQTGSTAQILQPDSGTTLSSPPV

[37] = molecular target: 5-hydroxytryptamine receptor 3A (Homo sapiens) (UniProt P46098); conditions: Compound concentration 10.0 uM
[38] = molecular target: Sodium-dependent serotonin transporter (Homo sapiens) (UniProt P31645); conditions: Compound concentration 10.0 uM
[39] = molecular target: Delta-type opioid receptor (Homo sapiens) (UniProt P41143); conditions: Compound concentration 10.0 uM
[40] = molecular target: T1, GABA-A receptor; anion channel (Rattus norvegicus) (UniProt O09028+P15431+P18506+P18508+P19969+P20236+P23574+P23576+P28471+P28473+P30191+P62813+P63079+P63138+Q91ZM7+Q9ES14); conditions: Compound concentration 10.0 uM
[41] = molecular target: T1, GABA-A receptor; anion channel (Rattus norvegicus); conditions: Compound concentration 10.0 uM; remark: listed apart in the source
[42] = molecular target: Alpha-1D adrenergic receptor (Homo sapiens) (UniProt P25100); conditions: Compound concentration 10.0 uM

C[C@H](c1ccc(F)cc1)N(Cc1cccc(C(=O)O)c1)C(=O)c1cnc2ccccc2c1 [PF-05105679]
inactive: residual activity [1] 100% | residual activity [2] 94% | residual activity [3] 100% | residual activity [4] 100% | residual activity [5] 100% | residual activity [6] 100% | residual activity [7] 100% | residual activity [8] 100% | residual activity [9] 86% | residual activity [10] 100% | residual activity [11] 100% | residual activity [12] 86% | residual activity [13] 80% | residual activity [14] 85% | residual activity [15] 68% | residual activity [16] 93% | residual activity [17] 100% | residual activity [18] 80% | residual activity [19] 88% | residual activity [20] 92% | residual activity [21] 100% | residual activity [22] 100% | residual activity [23] 100% | residual activity [24] 100% | residual activity [25] 100% | residual activity [26] 100% | residual activity [27] 100% | residual activity [28] 100% | residual activity [29] 100% | residual activity [30] 100% | residual activity [31] 98% | residual activity [32] 89% | residual activity [33] 100% | residual activity [34] 82% | residual activity [35] 100% | residual activity [36] 100% | inhibition [37] -1.19% | inhibition [38] 23.4% | inhibition [39] -1.72% | inhibition [40] 28.4% | inhibition [41] 20.8% | inhibition [42] 27.3%
